Source: ChEMBL document CHEMBL1155098, “Synthesis and binding studies of 2-O- and 11-O-substituted N-alkylnoraporphines” (Bioorg Med Chem Lett, 2008)

Experiments:
D(2) dopamine receptor = D(2) dopamine receptor (Rattus norvegicus, UniProt P61169); assay: Displacement of [3H]neomonapride from dopamine D2 receptor in rat corpus striatum
[1] = target: T1, 5-hydroxytryptamine receptor 1A (Rattus norvegicus, UniProt P19327); assay: Displacement of [3H]8-OH-DPAT from Serotonin 5-HT1A receptor in rat corpus striatum
T1 sequence (P19327 whole entry): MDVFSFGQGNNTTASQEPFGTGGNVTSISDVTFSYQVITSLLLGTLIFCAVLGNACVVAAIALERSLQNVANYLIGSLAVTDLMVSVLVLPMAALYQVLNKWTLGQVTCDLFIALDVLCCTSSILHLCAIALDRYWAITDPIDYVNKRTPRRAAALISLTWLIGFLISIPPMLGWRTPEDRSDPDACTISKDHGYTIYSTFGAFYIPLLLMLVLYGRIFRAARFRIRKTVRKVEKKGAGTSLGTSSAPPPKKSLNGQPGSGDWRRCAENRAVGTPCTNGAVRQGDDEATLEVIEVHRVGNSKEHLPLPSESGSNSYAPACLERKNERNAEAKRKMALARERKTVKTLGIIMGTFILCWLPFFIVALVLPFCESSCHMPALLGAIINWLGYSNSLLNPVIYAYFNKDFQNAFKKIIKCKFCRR

D(1A) dopamine receptor = D(1A) dopamine receptor (Rattus norvegicus, UniProt P18901); assay: Displacement of [3H]SCH23390 from dopamine D1 receptor in rat corpus striatum
D(1A) dopamine receptor, sequence (P18901 whole entry): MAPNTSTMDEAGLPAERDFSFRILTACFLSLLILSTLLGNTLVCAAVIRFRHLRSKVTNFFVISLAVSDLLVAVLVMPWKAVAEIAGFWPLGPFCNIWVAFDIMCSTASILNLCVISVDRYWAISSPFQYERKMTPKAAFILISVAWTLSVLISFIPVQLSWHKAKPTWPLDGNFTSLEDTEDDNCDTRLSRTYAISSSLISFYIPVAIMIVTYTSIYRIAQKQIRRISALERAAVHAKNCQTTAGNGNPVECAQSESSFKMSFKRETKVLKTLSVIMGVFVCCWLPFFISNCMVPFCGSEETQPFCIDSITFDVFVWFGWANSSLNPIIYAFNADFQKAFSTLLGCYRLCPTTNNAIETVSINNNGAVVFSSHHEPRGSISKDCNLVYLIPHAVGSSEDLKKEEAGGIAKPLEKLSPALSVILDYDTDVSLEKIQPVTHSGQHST

Rattus norvegicus = species on record: Rattus norvegicus; assay: Selectivity ratio of […] in rat corpus striatum; type: tissue-based

D(2) dopamine receptor, sequence (P61169 whole entry): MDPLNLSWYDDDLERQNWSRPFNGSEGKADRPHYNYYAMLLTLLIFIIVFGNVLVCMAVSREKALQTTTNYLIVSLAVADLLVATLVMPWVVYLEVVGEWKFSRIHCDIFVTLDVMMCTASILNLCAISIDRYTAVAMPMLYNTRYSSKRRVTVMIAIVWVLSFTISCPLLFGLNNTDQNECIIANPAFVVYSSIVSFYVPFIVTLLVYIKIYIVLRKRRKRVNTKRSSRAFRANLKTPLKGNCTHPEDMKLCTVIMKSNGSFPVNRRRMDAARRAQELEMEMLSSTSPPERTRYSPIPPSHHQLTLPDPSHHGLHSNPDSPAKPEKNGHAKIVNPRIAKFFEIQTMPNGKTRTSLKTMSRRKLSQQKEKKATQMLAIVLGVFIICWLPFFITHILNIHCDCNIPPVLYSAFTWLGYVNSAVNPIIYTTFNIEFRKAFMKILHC

Question: Which results are given for `CN1CCc2cc(O)cc3c2[C@H]1Cc1cccc(OCCO)c1-3`?
Answer: Ki (D(2) dopamine receptor): 3.34 µM; Ki [1]: 0.289 µM; Ki (D(1A) dopamine receptor): > 10 µM; Ratio (Rattus norvegicus): 3

Question: Which Ki (D(2) dopamine receptor) does the source give for `CCOc1cccc2c1-c1cc(O)cc3c1[C@@H](C2)N(C)CC3` here?
Answer: Its Ki is 0.641 µM.

Question: What about the Ki [1] of the same compound?
Answer: The Ki was 0.432 µM.

Question: And the Ki (D(1A) dopamine receptor)?
Answer: The Ki was 3.68 µM.

Question: What about the Ratio (Rattus norvegicus) of the same compound?
Answer: The Ratio was 5.7.

Question: How did the Ki (D(2) dopamine receptor) turn out when `COc1cc2c3c(c1)-c1ccccc1C[C@H]3N(C)CC2` was run?
Answer: The Ki was 0.731 µM.

Question: And the Ki [1]?
Answer: The Ki was 2.66 µM.

Question: What about the Ki (D(1A) dopamine receptor) of the same compound?
Answer: Its Ki is 1.3 µM.

Question: And the Ratio (Rattus norvegicus)?
Answer: Its Ratio is 1.8.

Question: Which results are given for `CCCN1CCc2cc(OC)cc3c2[C@H]1Cc1ccccc1-3`?
Answer: Ki [1]: 1.6 µM; Ki (D(1A) dopamine receptor): > 10 µM

Question: How did the Ki (D(1A) dopamine receptor) turn out when `CCCOc1cccc2c1-c1cc(O)cc3c1[C@@H](C2)N(C)CC3` was run?
Answer: Its Ki is 1.81 µM.

Question: Which results are given for `CCCN1CCc2cc(OCCO)cc3c2[C@H]1Cc1cccc(O)c1-3`?
Answer: Ki (D(2) dopamine receptor): 0.097 µM; Ki (D(1A) dopamine receptor): > 10 µM; Ratio (Rattus norvegicus): > 103
